Laboratory results taken from PubChem BioAssay AID256 (DTP/NCI, 2004).
Where “and” joins values, the source holds several entries; their conditions need not be identical. Equal entries are not always repeated. Inconclusive results and toxic doses are left out. The calls were made as follows: active = survival T/C of 150% or more; inactive = T/C below 125% in these data.

Test system: CD2F1 mice, L1210 leukemia ip, survival T/C
Experiment: NCI In Vivo Anticancer Drug Screen. Data for tumor model L1210 Leukemia (intraperitoneal) in CD2F1 (CDF1) mice
Conditions: higher = longer survival
Outline: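 Each value reflects a quotient of treated over vehicle control outcomes in mice with a transplanted tumor.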

[1] = endpoint: mean survival time, dose: 100.0 mg/kg/injection, schedule: Q01DX009 (ip), vehicle: saline with Tween-80
[2] = endpoint: mean survival time, dose: 200.0 mg/kg/injection, schedule: Q01DX009 (ip), vehicle: saline with Tween-80
[3] = endpoint: mean survival time, dose: 400.0 mg/kg/injection, schedule: Q01DX009 (ip), vehicle: saline with Tween-80
[4] = endpoint: mean survival time, dose: 100.0 mg/kg/injection, schedule: Q01DX009 (ip), vehicle: other
[5] = endpoint: mean survival time, dose: 200.0 mg/kg/injection, schedule: Q01DX009 (ip), vehicle: other
[6] = endpoint: mean survival time, dose: 100.0 mg/kg/injection, schedule: Q01DX001 (ip), vehicle: saline with Tween-80
[7] = endpoint: mean survival time, dose: 200.0 mg/kg/injection, schedule: Q01DX001 (ip), vehicle: saline with Tween-80
[8] = endpoint: mean survival time, dose: 400.0 mg/kg/injection, schedule: Q01DX001 (ip), vehicle: saline with Tween-80
[9] = endpoint: mean survival time, dose: 100.0 mg/kg/injection, schedule: Q04DX003 (ip), vehicle: saline with Tween-80
[10] = endpoint: mean survival time, dose: 200.0 mg/kg/injection, schedule: Q04DX003 (ip), vehicle: saline with Tween-80
[11] = endpoint: mean survival time, dose: 400.0 mg/kg/injection, schedule: Q04DX003 (ip), vehicle: saline with Tween-80
[12] = endpoint: mean survival time, dose: 25.0 mg/kg/injection, schedule: Q01DX009 (ip), vehicle: saline with Tween-80
[13] = endpoint: mean survival time, dose: 50.0 mg/kg/injection, schedule: Q01DX009 (ip), vehicle: saline with Tween-80
[14] = endpoint: mean survival time, dose: 50.0 mg/kg/injection, schedule: Q01DX001 (ip), vehicle: saline with Tween-80

Measured: T/C

CCOC(=O)C(C#N)N=Nc1ccccc1 (stereo unspecified)
inactive: [1] 95 % of control | [2] 95 % of control | [3] 95 % of control

OC1(C(Cl)(Cl)Cl)CCCCC1
inactive: [4] 101 % of control | [5] 103 % of control | endpoint: mean survival time, dose: 400.0 mg/kg/injection, schedule: Q01DX009 (ip), vehicle: other 106 % of control

O=S(=O)(Cl)OC(CCl)C(OS(=O)(=O)Cl)C(OS(=O)(=O)Cl)C(CCl)OS(=O)(=O)Cl (stereo unspecified)
inactive: [1] 92 % of control | [2] 100 % of control | [3] 100 % of control

CNC(=O)Oc1cccc(NC(=O)OCCC(C)C)c1
inactive: [6] 96 % of control | [7] 93 % of control | [8] 96 % of control

O=c1ccc2nc3cc(Cl)ccc3sc-2c1
inactive: endpoint: mean survival time, dose: 100.0 mg/kg/injection, schedule: Q04DX003 (ip), vehicle: Klucel (hydroxypropylcellulose) (HPC) 94 % of control | endpoint: mean survival time, dose: 200.0 mg/kg/injection, schedule: Q04DX003 (ip), vehicle: Klucel (hydroxypropylcellulose) (HPC) 94 % of control | endpoint: mean survival time, dose: 400.0 mg/kg/injection, schedule: Q04DX003 (ip), vehicle: Klucel (hydroxypropylcellulose) (HPC) 94 % of control

COc1ccc(C(C)=O)cc1[N+](=O)[O-]
inactive: [1] 98 % of control | [9] 96 % of control | [2] 97 % of control | [10] 102 % of control | [11] 94 % of control

CCCCCCCC/C=C/CCCCCC1CCCC(C)N1 (stereo unspecified)
inactive: endpoint: mean survival time, dose: 50.0 mg/kg/injection, schedule: Q04DX002 (ip), vehicle: saline with Tween-80 98 % of control and 102 % of control | endpoint: mean survival time, dose: 100.0 mg/kg/injection, schedule: Q04DX002 (ip), vehicle: saline with Tween-80 94 % of control

CN(C)C=Nc1ccc([N+](=O)[O-])cc1
inactive: [9] 101 % of control | [10] 101 % of control | [11] 92 % of control

CC(Br)C(=O)NC(CC(N)=O)C(=O)O (stereo unspecified)
inactive: [9] 102 % of control | [10] 98 % of control

CCN(CC)CC(=O)Nc1c(C)cccc1C
inactive: [12] 95 % of control | [13] 95 % of control | [1] 89 % of control | [9] 95 % of control

CC(=O)O/C=C1\CC2C3CC=C4CC(OC(C)=O)CCC4(C)C3CCC2(C)C1=O (stereo unspecified)
inactive: endpoint: mean survival time, dose: 25.0 mg/kg/injection, schedule: Q01DX001 (ip), vehicle: saline with Tween-80 100 % of control | [14] 95 % of control | [6] 95 % of control

O=S(=O)(O)N=Nc1ccc(OCc2ccccc2)cc1
inactive: endpoint: mean survival time, dose: 100.0 mg/kg/injection, schedule: Q01DX001 (ip), vehicle: saline 100 % of control | endpoint: mean survival time, dose: 200.0 mg/kg/injection, schedule: Q01DX001 (ip), vehicle: saline 100 % of control | endpoint: mean survival time, dose: 400.0 mg/kg/injection, schedule: Q01DX001 (ip), vehicle: saline 97 % of control

CC(=O)[C@H]1CC[C@H]2[C@@H]3CC[C@@H]4CC(=O)CC[C@]4(C)[C@H]3CC[C@]12C
inactive: [9] 96 % of control | [10] 96 % of control | [11] 96 % of control

COc1ccc2c(c1)CCC1C2CCC2(C)C(=O)OC(=O)C12 (stereo unspecified)
inactive: endpoint: mean survival time, dose: 100.0 mg/kg/injection, schedule: Q04DX003 (sc), vehicle: steriod suspending solution 101 % of control | endpoint: mean survival time, dose: 200.0 mg/kg/injection, schedule: Q04DX003 (sc), vehicle: steriod suspending solution 95 % of control | endpoint: mean survival time, dose: 400.0 mg/kg/injection, schedule: Q04DX003 (sc), vehicle: steriod suspending solution 98 % of control

COc1ccc2c(c1[N+](=O)[O-])CCCCC2=O
inactive: endpoint: mean survival time, dose: 50.0 mg/kg/injection, schedule: Q01DX009 (ip), vehicle: other 100 % of control | [4] 92 % of control | [5] 100 % of control

COc1cc(N(C)C)ccc1/C=C\c1ccnc2ccccc12
inactive: [14] 96 % of control | [6] 95 % of control | [7] 95 % of control | [8] 93 % of control

Cc1ncc([N+](=O)[O-])n1CCSC(N)=O
inactive: endpoint: mean survival time, dose: 12.5 mg/kg/injection, schedule: Q01DX009 (ip), vehicle: saline with Tween-80 103 % of control | [12] 96 % of control | [13] 102 % of control | [1] 100 % of control | [2] 100 % of control | [3] 100 % of control

CCSc1nc(N)c2ncn(C3OC(C)C(O)C(O)C3O)c2n1 (stereo unspecified)
inactive: endpoint: median survival time, dose: 12.5 mg/kg/injection, schedule: Q01DX005 (ip), vehicle: saline with Tween-80 106 % of control | endpoint: median survival time, dose: 25.0 mg/kg/injection, schedule: Q01DX005 (ip), vehicle: saline with Tween-80 101 % of control | endpoint: median survival time, dose: 50.0 mg/kg/injection, schedule: Q01DX005 (ip), vehicle: saline with Tween-80 94 % of control | endpoint: median survival time, dose: 100.0 mg/kg/injection, schedule: Q01DX005 (ip), vehicle: saline with Tween-80 103 % of control | endpoint: median survival time, dose: 200.0 mg/kg/injection, schedule: Q01DX005 (ip), vehicle: saline with Tween-80 100 % of control
